Experimental data as given in patent publication US20160168185A1 (BAYLOR COLLEGE OF MEDICINE, priority 2013, published 2016).
Where two headings read alike, the source gives them in different places.

Assays:
[1] = continuous infusion, subcutaneously implanted osmotic pump; cited from earlier work
[2] = test system: MV4-11 MLL leukemia mouse model; conditions: cited from earlier work
[3] = test system: histone methyltransferases CARM1, PRMT1 and SUV39H1
[4] = Human liver microsome stability assay; type: in vitro ADME
[5] = test system: claudin-1, -3, E-cadherin, Snail1, Zeb1, Zeb2 expression in MDA-MB231; experiment: qPCR of cell-cell adhesion and EMT gene expression in MDA-MB231; type: cell-based
From the text: Fourth, qPCR was used to find if treatment with SYC-522 affects gene expression of cell-cell adhesion and EMT genes. […].

MDA-MB231 = experiment: Apoptosis of MDA-MB231, FACS with Annexin-V assay; conditions: 10-day treatment
panel of other HMTs = experiment: Activity against a panel of other HMTs
[6] = Human plasma stability assay; type: in vitro ADME
Experimental: For human plasma stability assay, to human plasma (500 μL) was added a test compound to a final concentration of 5 μM and incubated at 37° C. at approximately 60 rpm on an orbital shaker. Aliquots of 50 μL were taken from the reaction solution at 0, 15, 30, 45 and 60 minutes. The reaction was stopped by the addition of 6 volumes of cold acetonitrile. Samples were centrifuged at 20,000 g for 15 minutes to precipitate protein. An aliquot of 150 μL of the supernatant was used to determine the remaining amount of the test compound, using the same LC/MS/MS method described above. All experiments were performed in duplicate.

[7] = test system: H3K79 methylation in MV4-11 cells; experiment: cells; conditions: Homo sapiens, MV4-11, 96 h, read-out: IC50 of H3K79 methylation inhibition

SMILES: CC(C)N(CCCNC(=O)Nc1ccc(C(C)(C)C)cc1)C[C@H]1O[C@@H](n2ccc3c(N)ncnc32)[C@H](O)[C@@H]1O [EPZ004777]
- stable plasma drug concentration [1]: ~0.5 µM
- in vivo efficacy in MLL leukemia mouse model in words [2]: weak in vivo activity
- in vivo efficacy in MLL leukemia mouse model in words ([2]; listed as Compound 1): relatively weak in vivo efficacy

SMILES: Nc1ncnc2c1ncn2[C@@H]1O[C@H](CSCC[C@H](N)C(=O)O)[C@@H](O)[C@H]1O [SAH, S-(5′-adenosyl)-L-homocysteine, reference compound]
- activity against CARM1, PRMT1 and SUV39H1 (other HMTs) in words [3]: broad activity

SMILES: CC(C)N(CCCNC(=O)Nc1ccc(C(C)(C)C)cc1)C[C@H]1O[C@@H](n2cnc3c(N)ncnc32)[C@H](O)[C@@H]1O [SYC-522]
- metabolic stability in human liver microsomes in words [4]: quickly degraded
- Zeb1 and Zeb2 expression [5]: unchanged or slightly increased
- expression of Snail1 [5]: large decreased expression
- increase of the expression of claudin-1, -3 and E-cadherin ([5]; dose-dependent): ≤ 3.9 fold
- apoptosis of MDA-MB231 at 2 μM (MDA-MB231; 2 μM): negligible apoptosis
- apoptosis of MDA-MB231 at 10 μM (MDA-MB231; 10 μM): 18.4%

SMILES: CNc1ncnc2c1ncn2[C@@H]1O[C@H](CSCC[C@H](N)C(=O)O)[C@@H](O)[C@H]1O [compound 24, N6-methyl-SAH]
- activity against a panel of other HMTs in words (panel of other HMTs): inactive

SMILES: CC(C)N(CCCNC(=O)Nc1ccc(C(C)(C)C)cc1)CC1=C[C@@H](n2cnc3c(N)ncnc32)[C@H](O)[C@@H]1O [compound of Formula VII, 1-(3-((((3R,4S,5R)-3-adenosyl-4,5-dihydroxycyclopent-1-en-1-yl)methyl)-(isopropyl)amino)propyl)-3-(4-(tert-butyl)phenyl)urea]
- stability in human plasma in words [6]: stable
- activity against CARM1, PRMT1 and SUV39H1 (other HMTs) in words [3]: no activity
- IC50 [7]: ~200 nM
